Measurements published in article PMC9697031, “Identification of Novel Diarylpyrimidines as Potent HIV-1 Non-Nucleoside Reverse Transcriptase Inhibitors by Exploring the Primer Grip Region” (Pharmaceuticals, 2022).
Where two headings read alike, the source gives them in different places.

Key:
[1] = tested on: HIV-1 E138K mutant strain; assay: Anti-HIV-1 mutant strain E138K in MT-4 cells, MTT method; format: cell-based; conditions: Human immunodeficiency virus 1, MT4, read-out: EC50 E138K
Protocol: (§2) Evaluation of the anti-HIV activity and cytotoxicity of the target compounds was performed by utilizing the MTT method in MT-4 cells described previously [37]. Stock solutions (10 × final concentration) of test compounds were added in 25 μL volumes to two series of triplicate wells to allow simultaneous evaluation of their effects on mock- and HIV-infected cells at the beginning of each experiment. Serial five-fold dilutions of test compounds were prepared directly in flat-bottomed 96-well microtiter trays by adding 100 μL medium to the 25 μL stock solution and transferring 25 μL of this solution to another well that contained 100 μL medium using a Biomek 3000 robot (Beckman Instruments, Fullerton, CA). Each sample includes untreated control HIV- and mock-infected cell samples. WT HIV-1 strain (IIIB), HIV-1 drug-resistant strains including L100I, K103N, Y181C, Y188L, E138K, K103N/Y181C, F227L/V106A or HIV-2 strain (ROD) stock (50 μL) at 100–300 CCID50 (50% cell culture infectious dose) or culture medium was added to either the infected or mock-infected wells of the microtiter tray. Mock-infected cells were used to evaluate the effect of test compounds on uninfected cells to evaluate their cytotoxicity. Exponentially growing MT-4 cells were centrifuged for 5 min at 1000 rpm, and the supernatant was discarded. […] After infection five days, the viability of mock- and HIV-infected cells was examined spectrophotometrically by the MTT assay.

[2] = tested on: HIV-1 Y181C mutant strain; assay: Anti-HIV-1 mutant strain Y181C in MT-4 cells, MTT method; format: cell-based; conditions: Human immunodeficiency virus 1, MT4, read-out: EC50 Y181C
Protocol: as §2

in vitro = conditions: human
Protocol: (§1) Stock solutions (10 × final concentration) of test compounds were added in 25 μL volumes to two series of triplicate wells to allow simultaneous evaluation of their effects on mock- and HIV-infected cells at the beginning of each experiment.

HIV-1 WT RT = target: T1, HIV-1 WT RT (Human immunodeficiency virus type 1 group M subtype B, UniProt P04585); assay: HIV-1 RT inhibition assay (Roche kit, ELISA); format: biochemical
T1 construct: The RT is a heterodimer consisting of two subunits, p66 (560 residues) and p51 (440 residues); purchased Roche
Protocol: An HIV-1 reverse transcriptase (RT) assay kit produced by Roche was used for the RT inhibition assay. All the reagents for performing the RT reaction came from the kit, and the ELSIA procedures for RT inhibition assay were conducted following the description in the kit protocol [38]. […] Then used, a washing buffer was used to remove the unbound dNTPs, and an anti-DIG-POD working solution was added. […] The unbound anti-DIG-PODs were removed, and the peroxidesubstrate (ABST) solution was added to the MTPs. A colored reaction proceeds during the cleavage of the substrate catalyzed by POD. […] The percentage inhibitory activity of RT inhibitors was calculated by the formula given below: % Inhibition = [O.D. value with RT but without inhibitors − O.D. value with RT and inhibitors]/[O.D. value with RT and inhibitors − O.D. value without RT and inhibitors].

HIV-2 strain (ROD) = assay: Anti-HIV-2 (ROD) activity in MT-4 cells, MTT method; format: cell-based
Protocol: as §1

[3] = tested on: HIV-1 RES056 (K103N/Y181C) mutant strain; assay: Anti-HIV-1 double mutant RES056 in MT-4 cells, MTT method; format: cell-based; conditions: Human immunodeficiency virus 1, MT4, read-out: EC50 RES056
Protocol: as §2

[4] = tested on: HIV-1 F227L + V106A mutant strain; assay: Anti-HIV-1 double mutant F227L + V106A in MT-4 cells, MTT method; format: cell-based; conditions: Human immunodeficiency virus 1, MT4, read-out: EC50 F227L + V106A
Protocol: as §2

[5] = tested on: HIV-1 K103N mutant strain; assay: microbe, parasite or virus in culture; format: cell-based; conditions: for EC50: Human immunodeficiency virus 1, MT4, read-out: EC50 K103N; for Resistance Folds K103N: RF, EC50 (K103N)/EC50 (WT)
Protocol: as §1

[6] = tested on: HIV-1 Y188L mutant strain; assay: Anti-HIV-1 mutant strain Y188L in MT-4 cells, MTT method; format: cell-based; conditions: Human immunodeficiency virus 1, MT4, read-out: EC50 Y188L
Protocol: as §2

WT HIV-1 strain (IIIB) = assay: Anti-HIV-1 (IIIB, wild-type) activity in MT-4 cells, MTT method; format: cell-based; conditions: for SI (IIIB): selectivity index, CC50/EC50 (IIIB)
Protocol: as §1

[7] = tested on: HIV-1 L100I mutant strain; assay: Anti-HIV-1 mutant strain L100I in MT-4 cells, MTT method; format: cell-based; conditions: Human immunodeficiency virus 1, MT4, read-out: EC50 L100I
Protocol: as §2

[8] = Human immunodeficiency virus 2, MT4, read-out: EC50 ROD
[9] = Human immunodeficiency virus 1, IIIB, MT4, read-out: EC50 IIIB, MT-4 cells, WT HIV-1 IIIB, MTT
[10] = Human immunodeficiency virus 1, MT4, MT-4 cells, WT HIV-1 IIIB, MTT, read-out: EC50 IIIB

Row | Compound | EC50 [1] [µM] | EC50 [2] [µM] | CC50 at 5 days (in vitro) [µM] | IC50 (HIV-1 WT RT) [µM] | EC50 (HIV-2 strain (ROD); [8]) [µM] | EC50 [3] [µM] | EC50 [4] [µM] | EC50 [5] [µM] | Resistance Folds K103N [5] | EC50 [6] [µM] | EC50 (WT HIV-1 strain (IIIB); [9]) [µM] | EC50 [7] [µM] | melting point [°C] | SI (IIIB) (WT HIV-1 strain (IIIB)) | EC50 (WT HIV-1 strain (IIIB); [10]) [µM] | EC50 (HIV-2 strain (ROD); Human immunodeficiency virus 2, MT4, MT-4 cells, HIV-2 ROD, MTT, read-out: EC50 ROD) [µM]
1 | COc1ccc(OCc2cc(C)c(Oc3ccnc(Nc4ccc(C#N)cc4)n3)c(C)c2)cc1 [TF5, 4-((4-(4-((4-methoxyphenoxy)methyl)-2,6-dimethylphenoxy)pyrimidin-2-yl)amino)benzonitrile] | 0.0653 ± 0.01 | 0.268 ± 0.0289 | 254 | 0.054 ± 0.004 | > 254 | > 254 | 1.41 ± 0.57 | 0.0445 ± 0.0049 | 2.00 | 0.964 ± 0.0981 | 0.0217 ± 0.0036 | 0.126 ± 0.0126 | – | – | – | –
2 | Cc1cc(COc2ccc(CO)cc2)cc(C)c1Oc1ccnc(Nc2ccc(C#N)cc2)n1 [TF8, 4-((4-(4-((4-(hydroxymethyl)phenoxy)methyl)-2,6-dimethylphenoxy)pyrimidin-2-yl)amino)benzonitrile] | 0.147 ± 0.0046 | 0.667 ± 0.078 | 2.92 ± 0.272 | 0.041 ± 0.001 | > 2.92 | 1.419 ± 0.0097 | 0.853 ± 0.0814 | 0.11 ± 0.0046 | 2.56 | 0.886 ± 0.0201 | 0.0428 ± 0.0056 | 0.329 ± 0.0567 | 209 to 212 | 68.1 | – | –
3 | Cc1cc(COc2ccc([N+](=O)[O-])cc2)cc(C)c1Oc1ccnc(Nc2ccc(C#N)cc2)n1 [TF15, 4-((4-(2,6-Dimethyl-4-((4-nitrophenoxy)methyl)phenoxy)pyrimidin-2-yl)amino) benzonitrile] | 0.05 ± 0.0044 | 0.196 ± 0.0254 | 215 | 0.063 ± 0.001 | > 215 | 1.8 ± 0.0685 | 1.66 ± 0.448 | 0.0463 ± 0.0097 | 2.00 | 1.08 ± 0.0994 | 0.0231 ± 0.0031 | 0.105 ± 0.0152 | – | – | – | –
4 | Cc1cc(COc2ccc(N)cc2)cc(C)c1Oc1ccnc(Nc2ccc(C#N)cc2)n1 [TF17, 4-((4-(4-((4-Aminophenoxy)methyl)-2,6-dimethylphenoxy)pyrimidin-2-yl)amino) benzonitrile] | 0.152 ± 0.0103 | 0.552 ± 0.0625 | 5.49 ± 0.328 | 0.057 ± 0.003 | > 5.49 | – | 0.747 ± 0.0722 | 0.0653 ± 0.0076 | 1.97 | 0.905 ± 0.147 | 0.0325 ± 0.0017 | 0.227 ± 0.0289 | – | – | – | –
5 | COc1ccccc1OCc1cc(C)c(Oc2ccnc(Nc3ccc(C#N)cc3)n2)c(C)c1 [TF7, 4-((4-(4-((2-methoxyphenoxy)methyl)-2,6-dimethylphenoxy)pyrimidin-2-yl)amino)benzonitrile] | 0.181 ± 0.0107 | 0.791 ± 0.0629 | 8.15 ± 0.548 | 0.073 ± 0.003 | > 8.15 | > 8.15 | 1.22 ± 0.179 | 0.164 ± 0.0055 | 6.31 | > 8.15 | 0.0255 ± 0.0084 | 0.452 ± 0.0705 | – | – | – | –
6 | Cc1cc(COc2ccc(C#N)cc2)cc(C)c1Oc1ccnc(Nc2ccc(C#N)cc2)n1 [TF2, 4-((4-(4-((4-cyanophenoxy)methyl)-2,6-dimethylphenoxy)pyrimidin-2-yl)amino) benzonitrile] | 0.044 ± 0.0029 | 0.139 ± 0.0349 | > 279 | 0.055 ± 0.001 | > 279 | > 279 | 1.14 ± 0.347 | 0.0281 ± 0.0071 | 3.68 | 1.39 ± 0.119 | 0.0076 ± 0.0006 | 0.117 ± 0.0495 | 202 to 205 | >36,610.9 | – | –
7 | Cc1cc(COc2ccccc2CO)cc(C)c1Oc1ccnc(Nc2ccc(C#N)cc2)n1 [TF10, 4-((4-(4-((2-(hydroxymethyl)phenoxy)methyl)-2,6-dimethylphenoxy)pyrimidin-2-yl)amino)benzonitrile] | 0.179 ± 0.0269 | 0.766 ± 0.0225 | 4.8 ± 0.342 | 0.055 | > 4.8 | > 4.8 | 1.49 ± 0.0339 | 0.158 ± 0.0186 | 4.94 | > 4.8 | 0.0322 ± 0.0033 | 0.635 ± 0.0282 | 179 to 182 | 149.1 | – | –
8 | O=C1Nc2ccc(Cl)cc2[C@@](C#CC2CC2)(C(F)(F)F)O1 [EFV, efavirenz, reference compound] | 0.0044 ± 0.0003 | 0.0055 ± 0.0005 | > 6.34 | – | – | 0.184 ± 0.022 | 0.201 ± 0.0173 | 0.0951 ± 0.0091 | – | 0.24 ± 0.0304 | – | 0.035 ± 0.0047 | – | – | 0.0024 ± 0.0003 | –
9 | Cc1cc(COc2cccc(C#N)c2)cc(C)c1Oc1ccnc(Nc2ccc(C#N)cc2)n1 [TF3, 3-((4-((2-((4-cyanophenyl)amino)pyrimidin-4-yl)oxy)-3,5-dimethylbenzyl)oxy) benzonitrile] | 0.0877 ± 0.0085 | 0.245 ± 0.0396 | 5.52 ± 0.297 | 0.06 | > 5.52 | 1.54 ± 0.103 | 0.755 ± 0.156 | 0.0484 ± 0.0075 | 1.92 | 0.895 ± 0.0902 | 0.0245 ± 0.0041 | 0.116 ± 0.0058 | – | – | – | –
10 | Cc1ccnc2c1NC(=O)c1cccnc1N2C1CC1 [NVP, nevirapine, reference compound] | 0.149 ± 0.012 | 10.1 | > 15 | – | – | > 15 | > 15 | 7.5 ± 0.867 | – | ≥ 13.8 | – | 1.86 ± 0.365 | – | – | 0.123 ± 0.0073 | –
11 | Cc1cc(COc2ccccc2C#N)cc(C)c1Oc1ccnc(Nc2ccc(C#N)cc2)n1 [TF4, 2-((4-((2-((4-cyanophenyl)amino)pyrimidin-4-yl)oxy)-3,5-dimethylbenzyl)oxy) benzonitrile] | 0.103 ± 0.0068 | 0.482 ± 0.0426 | 5.29 ± 0.356 | 0.05 ± 0.002 | > 5.29 | > 5.3 | 1.28 ± 0.303 | 0.0759 ± 0.0139 | 9.74 | > 5.3 | 0.0078 ± 0.001 | 0.315 ± 0.0307 | – | – | – | –
12 | Cc1cn([C@H]2C[C@H](N=[N+]=[N-])[C@@H](CO)O2)c(=O)[nH]c1=O [AZT, Zidovudine, reference compound] | 0.0301 ± 0.003 | 0.0251 ± 0.003 | > 7.48 | – | – | 0.0251 ± 0.0018 | 0.0148 ± 0.0011 | 0.0228 ± 0.0011 | – | 0.0194 ± 0.0029 | – | 0.01 ± 0.0012 | – | >274.0 | 0.0273 ± 0.0035 | 0.0233 ± 0.0021
